The source of these data is patent US10960087B2, “Compositions and methods for treatment of diabetic retinopathy” (NOVARTIS AG, priority 2007, dated 2021).

In data set [1] the test system is HuT 78 cell adhesion to 5dICAM-Ig. The data set can be described thus: Human T-cell adhesion assay (HuT 78). Type of data set: cell-based. Conditions: HuT78, HuT 78 adhesion to 5dICAM-Ig. As for the experimental part: The T-cell adhesion assay was performed using the human T-lymphoid cell line HuT 78 (ATCC TIB-161). Goat anti-HuIgG(Fc) was diluted to 2 μg/ml in PBS and 96-well plates were coated with 50 μl/well at 37° C. for 1 h. Plates were washed with PBS and blocked for 1 h at room temperature with 1% BSA in PBS. 5 domain ICAM-Ig was diluted to 100 ng/ml in PBS and 50 μl/well was added to the plates 0/N at 4° C. HuT 78 cells were centrifuged at 100 g and the cell pellet was treated with 5 mM EDTA for ˜5′ at 37° C. in a 5% CO2 incubator. Cells were washed in 0.14 M NaCl, 0.02 M Hepes, 0.2% glucose and 0.1 mM MnCl2 (assay buffer) and centrifuged. The cells were resuspended in assay buffer to 3.0×10^6 c/ml. Inhibitors were diluted in assay buffer to a 2× final concentration and pre-incubated with HuT78 cells for 30′ at room temperature. 100 μl/well of cells and inhibitors were added to the plates and incubated at room temperature for 1 h. 100 μl/well PBS was added and the plates were sealed and centrifuged inverted at 100 g for 5′. Unattached cells were flicked out of the plate and excess PBS was blotted on a paper towel. 60 μl/well p-nitrophenyl n-acetyl-β-D-glucosaminide (0.257 g to 100 ml citrate buffer) was added to the plate and incubated for 1.5 h at 37° C. The enzyme reaction was stopped with 90 μI/well 50 mM glycine/5 mM EDTA and read on a platereader at […]. HUT 78 cell adhesion to 5dICAM-Ig was measured using the p-nitrophenyl n-acetyl-.β-D-glucosaminide method of Landegren, U. (1984). J. Immunol. Methods 57, 379-388.

Another data set is described as follows: Solubility. Type of data set: physicochemical.

Regarding `O=C(N[C@@H](Cc1c[nH]cn1)C(=O)O)c1c(Cl)cc2c(c1Cl)CCN(C(=O)c1ccc(Cl)cc1)C2` [Compound 1], the EC50 in data set [1] is no more than 300 nM. In data set [1], `O=C(NC[C@H](NC(=O)c1c(Cl)cc2c(c1Cl)CCN(C(=O)c1cccc(Cl)c1)C2)C(=O)O)c1cccs1` [Compound 2] had an EC50 of no more than 50 nM. The solubility in “Solubility” is greater than 100 mg/mL. On to `O=C(N[C@@H](CNc1ncnc2ccccc12)C(=O)O)c1c(Cl)cc2c(c1Cl)CCN(C(=O)c1ccc(Cl)cc1)C2` [Compound 3], for which the EC50 in data set [1] was no more than 50 nM. `C=C(C)c1cn(C[C@H](NC(=O)c2c(Cl)cc3c(c2Cl)CCN(C(=O)c2ccc(Cl)cc2)C3)C(=O)O)nn1` [Compound 4] registered an EC50 in data set [1] of no more than 100 nM.

The molecule `O=C(NC[C@H](NC(=O)c1c(Cl)cc2c(c1Cl)CCN(C(=O)c1ccc(Cl)cc1)C2)C(=O)O)c1ccccc1` [Compound 5] yielded a half-maximal effective concentration (EC50) in data set [1] of no more than 50 nM. Regarding `CCc1c(C(=O)N[C@@H](CNC(=O)c2cccs2)C(=O)O)c2ccccc2n(CCCc2ccccc2)c1=O` [Compound 6], the EC50 in data set [1] was no more than 50 nM. Moreover, in the data set “Solubility”, the solubility was greater than 100 mg/mL. In data set [1], `CS(=O)(=O)c1nc(C[C@H](NC(=O)c2c(Cl)cc3c(c2Cl)CCN(C(=O)c2ccc(Cl)cc2)C3)C(=O)O)c[nH]1` [Compound 7] had an EC50 of no more than 50 nM.

Molecule `O=C(N[C@@H](Cn1cc(CO)nn1)C(=O)O)c1c(Cl)cc2c(c1Cl)CCN(C(=O)c1ccc(Cl)cc1)C2` [Compound 8] came in with an EC50 in data set [1] of no more than 100 nM. Take `C[S+]([O-])c1cc(F)cc(C[C@H](NC(=O)c2c(Cl)cc3c(c2Cl)CCN(C(=O)c2ccc(Cl)cc2)C3)C(=O)O)c1` (some centres unmarked) [Compound 9]: in data set [1], the EC50 was no more than 50 nM. Further, the solubility in the data set “Solubility” was greater than 50 mg/mL.

Regarding `CN1CCN(C(=O)[C@H](CNC(=O)c2cccs2)NC(=O)c2c(Cl)cc3c(c2Cl)CCN(C(=O)c2ccc(Cl)cc2)C3)CC1` [Compound 10], in the data set “Solubility”, the solubility was greater than 100 mg/mL.

On to `O=C(NC[C@H](NC(=O)c1cc2c(cc1Cl)C(=O)N(Cc1ccccc1)CC2)C(=O)O)c1cccs1` [Compound 11], for which, in data set [1], the EC50 is no more than 3000 nM. `CS(=O)(=O)c1cccc(C[C@H](NC(=O)c2c(Cl)cc3c(c2Cl)CCN(C(=O)c2ccc4ccoc4c2)C3)C(=O)O)c1` [Compound 12]: the EC50 in data set [1] was no more than 50 nM. The molecule also came in with a solubility in “Solubility” greater than 100 mg/mL. In turn, `O=C(NC[C@H](NC(=O)c1c(Cl)cc2c(c1Cl)CCN(C(=O)c1ccc3cc[nH]c3c1)C2)C(=O)O)c1cccs1` [Compound 13] had an EC50 in data set [1] of no more than 50 nM. On the same count and under the same terms, the figure for `C[S+]([O-])c1cncc(C[C@H](NC(=O)c2c(Cl)cc3c(c2Cl)CCN(C(=O)c2ccc4ccoc4c2)C3)C(=O)O)c1` (some centres unmarked) [Compound 14] is no more than 50 nM. In the case of `CS(=O)(=O)c1cccc(C[C@H](NC(=O)c2c(Cl)cc3c(c2Cl)CCN(C(=O)c2ccc4cn[nH]c4c2)C3)C(=O)O)c1` [Compound 15], in data set [1], the EC50 was no more than 50 nM. In the data set “Solubility”, the solubility is greater than 100 mg/mL.

For the molecule `CS(=O)(=O)c1cccc(C[C@H](NC(=O)c2c(Cl)cc3c(c2Cl)CCN(C(=O)c2cc4ccccc4cn2)C3)C(=O)O)c1` [Compound 16], the EC50 in data set [1] was no more than 50 nM. In addition, the solubility in the data set “Solubility” was greater than 100 mg/mL. `O=C(NC[C@H](NC(=O)c1c(Cl)cc2c(c1Cl)CCN(C(=O)c1ccc(Cl)cc1)C2CO)C(=O)O)c1cccs1` (some centres unmarked) [Compound 17] registered an EC50 in data set [1] of no more than 50 nM. In data set [1], `O=C(NC[C@H](NC(=O)c1c(Cl)cc2c(c1Cl)CCN(C(=O)c1ccc(Cl)c(Cl)c1)C2)C(=O)O)c1cccs1` [Compound 18] returned an EC50 of no more than 50 nM. In data set [1], `CS(=O)(=O)c1cccc(C[C@H](NC(=O)c2c(Cl)cc3c(c2Cl)CCN(C(=O)c2cc4cccnc4[nH]2)C3)C(=O)O)c1` [Compound 19] came in with an EC50 of no more than 50 nM. This molecule showed a solubility in “Solubility” greater than 50 mg/mL. The corresponding values for `CS(=O)(=O)c1ccc(C[C@H](NC(=O)c2c(Cl)cc3c(c2Cl)CCN(C(=O)c2cc4cccnc4[nH]2)C3)C(=O)O)o1` [Compound 20] are no more than 50 nM and greater than 100 mg/mL. For `O=C(NC[C@H](NC(=O)c1c(Cl)cc2c(c1Cl)CCN(C(=O)Nc1cccc(Cl)c1)C2)C(=O)O)c1cccs1` [Compound 21], the EC50 in data set [1] was no more than 50 nM. The solubility in the data set “Solubility” is greater than 100 mg/mL. In turn, `CS(=O)(=O)c1ccn(C[C@H](NC(=O)c2c(Cl)cc3c(c2Cl)CCN(C(=O)c2ccc4ccoc4c2)C3)C(=O)O)c1` [Compound 22] yielded an EC50 in data set [1] of no more than 50 nM.

On to `CS(=O)(=O)N1CCC=C(C[C@H](NC(=O)c2c(Cl)cc3c(c2Cl)CCN(C(=O)c2ccc4ccoc4c2)C3)C(=O)O)C1` [Compound 23], for which the EC50 in data set [1] is no more than 50 nM.

Turning to `CC(C)n1cc(C[C@H](NC(=O)c2c(Cl)cc3c(c2Cl)CCN(C(=O)c2ccc(Cl)cc2)C3)C(=O)O)nn1` [Compound 24], the EC50 in data set [1] was no more than 100 nM. For `CS(=O)(=O)c1cc(F)cc(C[C@H](NC(=O)c2c(Cl)cc3c(c2Cl)CCN(C(=O)c2ccc4ccoc4c2)C3)C(=O)O)c1` [Compound 25], the EC50 in data set [1] was no more than 50 nM. In “Solubility”, this molecule yielded a solubility greater than 100 mg/mL. In data set [1], `N#CN=C(NC[C@H](NC(=O)c1c(Cl)cc2c(c1Cl)CCN(C(=O)/C=C/c1ccccc1O)C2)C(=O)O)N1CC[C@H](O)C1` [Compound 26] had an EC50 of no more than 50 nM. As for `CS(=O)(=O)c1cccc(C[C@H](NC(=O)c2c(Cl)cc3c(c2Cl)CCN(C(=O)/C=C/c2ccccc2F)C3)C(=O)O)c1` [Compound 27], the EC50 in data set [1] was no more than 50 nM. For the same molecule, the solubility in “Solubility” is greater than 100 mg/mL. Molecule `CS(=O)(=O)c1cccc(C[C@H](NC(=O)c2c(Cl)cc3c(c2Cl)CCN(C(=O)c2ccc(Cl)cc2)C3)C(=O)O)c1` [Compound 28] gave an EC50 in data set [1] of no more than 50 nM. On to `Cc1oc(C[C@H](NC(=O)c2c(Cl)cc3c(c2Cl)CCN(C(=O)c2ccc4ccoc4c2)C3)C(=O)O)cc1S(C)(=O)=O` [Compound 30], for which, in data set [1], the EC50 is no more than 50 nM. As to `CS(=O)(=O)c1cncc(C[C@H](NC(=O)c2c(Cl)cc3c(c2Cl)CCN(C(=O)c2ccc4ccoc4c2)C3)C(=O)O)c1` [Compound 33], the EC50 in data set [1] is no more than 50 nM. In turn, `O=C(NC[C@H](NC(=O)c1c(Cl)cc2c(c1Cl)CCN(C(=O)c1ccc3cn[nH]c3c1)C2)C(=O)O)c1cccs1` [Compound 34] yielded an EC50 in data set [1] of no more than 50 nM. Same read-out and setting: next, `CS(=O)(=O)c1cccc(C[C@H](NC(=O)c2c(Cl)cc(CCC(O)c3ccc(Cl)cc3)cc2Cl)C(=O)O)c1` (some centres unmarked) [Compound 37]: no more than 100 nM; `O=C(NC[C@H](NC(=O)c1c(Cl)cc2c(c1Cl)CCN(C(=O)c1cc3ccccc3o1)C2)C(=O)O)c1cccs1` [Compound 38]: no more than 50 nM. In data set [1], `CS(=O)(=O)Nc1ccccc1NC[C@H](NC(=O)c1c(Cl)cc2c(c1Cl)CCN(C(=O)c1ccc(Cl)cc1)C2)C(=O)O` [Compound 39] yielded an EC50 of no more than 50 nM. On the same count and under the same terms, next, `CS(=O)(=O)n1cc(C[C@H](NC(=O)c2c(Cl)cc3c(c2Cl)CCN(C(=O)/C=C/c2ccco2)C3)C(=O)O)c2ccccc21` [Compound 40]: no more than 300 nM; `CS(=O)(=O)c1cccc(C[C@H](NC(=O)c2c(Cl)cc(CNC(=O)/C=C/c3ccccc3O)cc2Cl)C(=O)O)c1` [Compound 43]: no more than 50 nM; `O=C(CCc1cc(Cl)c(C(=O)N[C@@H](CNC(=O)c2cccs2)C(=O)O)c(Cl)c1)c1cccc(O)c1` [Compound 47]: no more than 50 nM.

In the case of `C[C@H](O)c1cccc(C[C@H](NC(=O)c2c(Cl)cc3c(c2Cl)CCN(C(=O)c2ccc4cn[nH]c4c2)C3)C(=O)O)c1` [Compound 48], in data set [1], the EC50 was no more than 50 nM. Still for that read-out and setting: next, `CP(C)(=O)c1cccc(C[C@H](NC(=O)c2c(Cl)cc3c(c2Cl)CCN(C(=O)c2ccc4ccoc4c2)C3)C(=O)O)c1` [Compound 49]: no more than 100 nM.

Usually EC50 stands for the concentration at which the effect is half-maximal. Read a high EC50 as a need for much substance. By solubility is commonly meant the dissolved amount per volume that the medium holds. Low readings indicate little dissolved substance, high ones much dissolved substance.
